According to patent US20050090517A1, “Pharmaceutical combinations of cox-2 inhibitors and opiates” (priority 2002, published 2005):
Where two headings read alike, the source gives them in different places.

Key:
[1] = test system: noxious ischaemia to the tail of Sprague-Dawley rats; assay: Nociception during noxious ischaemia of the rat tail (tourniquet, escape latency); format: in vivo; conditions: median (95% confidence interval), n=10, cut-off 30 min
Protocol: Sprague-Dawley rats (Rattus norvegicus) both genders weighing 250-450 g were used for nociceptive tests. The rats were housed individually at an ambient temperature of 21-23° C. on a 12-hour light; 12-hour dark cycle, and were allowed free access to standard rat chow and tap water. Groups of ten rats were used for each test. Rats were returned to stock, and in good health, after the tests.
Ischaemia was induced by applying an inflatable tourniquet to the base of the restrained rat's tail, as detailed previously (Gelgor et al., 1992). […] The time between application of the tourniquet and the escape response, that is the escape latency, is a measure of sensitivity to the noxious stimulus induced by ischaemia. To prevent tissue damage, the tourniquet was removed if the rat had not responded within 30 min.
(§1) The tail flick latency (mean of three measurements, 1 min apart) was measured and then the agent under test was administered. Thirty minutes later the tourniquet (or sham tourniquet) was applied and the escape latency measured. Immediately after release of the tourniquet, the tail flick latency was again measured, and the measurements were repeated after 30 and 60 min of reperfusion. Following inspection of the data at all three periods of reperfusion, the investigations elected to base their assessment of antihyperalgesic activity on data obtained immediately after release of the tourniquet.
Paracetamol, meloxicam and codeine phosphate were provided by the applicant. Codeine phosphate was dissolved in water. Meloxicam was dissolved in sunflower oil. Paracetamol was suspended in sunflower oil. All three agents were administered in boluses of 0.2 ml, and the paracetamol suspension was flushed with water. In control experiments, the appropriate vehicle (water, sunflower oil, or both) was administered.
Each agent was administered separately, at three doses, to determine the antinociceptve activity, if any, of each independently. Pairs of agents then were administered at three doses for each pair. Finally, the combination of the three agents was administered, at three doses. […]

[2] = test system: reperfusion hyperalgesia of the tail of Sprague-Dawley rats; assay: Reperfusion hyperalgesia of the rat tail following transient ischaemia (tail flick latency, antihyperalgesic index); format: in vivo; conditions: for ED50: Rattus norvegicus, read-out: ED50 (dose at which reperfusion hyperalgesia is reduced by 50%), agent separately
Protocol: Sprague-Dawley rats (Rattus norvegicus) both genders weighing 250-450 g were used for nociceptive tests. The rats were housed individually at an ambient temperature of 21-23° C. on a 12-hour light; 12-hour dark cycle, and were allowed free access to standard rat chow and tap water. Groups of ten rats were used for each test.
The response of the rats to a noxious thermal stimulus was measured using a modified tail flick test, the details of which have previously been described (Gelgor et al., 1992). The rat's tail was submerged in a water bath controlled at 49° C., and the time to the first coordinated motor response of the tail measured, with a safety cut-off at 30 s. Tail skin temperature was maintained at 29° C. by placing all but the proximal 20 mm of the rat's tail in a temperature-controlled bath, before and between measurements, to obviate the potential confounding effects of changes in tail temperature on tail flick latency (Tjolsen et al., 1989).
The hyperalgesia which occurs during reperfusion of the tail following transient ischaemia, that is following the release of the tourniquet mentioned above, was measured by comparing the tail flick latency during reperfusion with that measured in the same animal before application of the tourniquet. Hyperalgesia is manifest as a reduced tail flick latency during reperfusion, and lasts about one hour (Gelgor et al., 1992).
as §1
Codeine phosphate was dissolved in water. Meloxicam was dissolved in sunflower oil. Paracetamol was suspended in sunflower oil. All three agents were administered in boluses of 0.2 ml, and the paracetamol suspension was flushed with water. In control experiments, the appropriate vehicle (water, sunflower oil, or both) was administered.
Each agent was administered separately, at three doses, to determine the antinociceptve activity, if any, of each independently. Pairs of agents then were administered at three doses for each pair. Finally, the combination of the three agents was administered, at three doses. In all cases, the ratio of the agents was fixed at 1 meloxicam: 4 codeine: 266 paracetamol.
Antihyperalgesia is measured by the extent to which an agent reverses the hyperalgesia induced by conditioning event, which, in the test case, was transient ischaemia. An antihyperalgesic index of zero means complete lack of antihyperalgesic activity, an index of 100% means full reversal of the hyperalgesia, and an index of more than 100% implies some analgesic activity added to the antihyperalgesic activity.

[3] = oral, single agent, least-squares regression, n=9 or 10, immediately after release of tourniquet

Cc1cnc(NC(=O)C2=C(O)c3ccccc3S(=O)(=O)N2C)s1 [Meloxicam, meloxicam]
Escape latency (min), Agent ([1]; meloxicam 5 mg/kg oral 30 min earlier): 25.3 (15.7-30.0) min
ED50 [2, 3]: 2.6 mg/kg

COc1ccc2c3c1O[C@H]1[C@@H](O)C=C[C@H]4[C@@H](C2)N(C)CC[C@@]341 [Codeine, codeine phosphate]
Escape latency (min), Agent ([1]; codeine 20 mg/kg oral 30 min earlier): 20.9 (11.9-30.0) min
ED50 ([2]; po): 2.4 mg/kg

CC(=O)Nc1ccc(O)cc1 [Paracetamol, paracetamol]
Escape latency (min), Agent ([1]; paracetamol 266 mg/kg oral 30 min earlier): 18.2 (9.2-30.0) min
ED50 [2, 3]: > 266 mg/kg
Antihyperalgesic activity of each agent administered separately, in words ([2]; oral, three doses each (FIG. 2), paracetamol limited to 266 mg/kg): did not exhibit any antihyperalgesic activity
Antihyperalgesic activity of the agent on its own at its dose in the ED50 of the triple combination, in words ([2]; rat, in vivo): no antihyperalgesic activity
